Test results taken from ChEMBL document CHEMBL1821573, “A fast virtual screening approach to identify structurally diverse inhibitors of trypanothione reductase” (Bioorg Med Chem Lett, 2011).

target: Trypanothione reductase (Trypanosoma cruzi, UniProt P28593); assay: Inhibition of Trypanosoma cruzi TryR using trypanothione as substrate preincubated for 10 mins
Sequence (P28593 whole entry): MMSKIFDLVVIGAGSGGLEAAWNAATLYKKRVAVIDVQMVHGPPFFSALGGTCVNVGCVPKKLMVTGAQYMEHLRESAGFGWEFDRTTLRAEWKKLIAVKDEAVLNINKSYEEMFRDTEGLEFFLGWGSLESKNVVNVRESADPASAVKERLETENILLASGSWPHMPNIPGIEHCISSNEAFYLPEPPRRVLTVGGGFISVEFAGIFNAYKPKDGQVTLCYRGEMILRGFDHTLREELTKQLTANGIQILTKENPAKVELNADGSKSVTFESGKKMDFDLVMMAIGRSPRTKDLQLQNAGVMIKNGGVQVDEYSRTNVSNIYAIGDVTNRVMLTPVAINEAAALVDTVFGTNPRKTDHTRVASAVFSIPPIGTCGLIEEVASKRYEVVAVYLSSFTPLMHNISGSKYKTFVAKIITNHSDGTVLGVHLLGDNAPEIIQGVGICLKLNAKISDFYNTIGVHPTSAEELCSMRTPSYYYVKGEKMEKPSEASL

Structure (SMILES) | Ki
Cc1ccc2[nH]c(Cc3ccc(NC(=O)CCc4nc5ccccc5[nH]4)cc3)nc2c1 | 13.1 µM
CCn1c(-c2ccccc2)cnc1SCC(=O)Nc1ccc(C2CCCCC2)cc1 | 5.7 µM
CCn1c(-c2ccccc2)cnc1SCC(=O)Nc1sc2c(c1C#N)CCCC2 | 13.1 µM
Cc1ccc2nc(Cc3ccc(NC(=O)C(C)Oc4ccccc4)cc3)[nH]c2c1 (centres undefined) | 26.9 µM
COCCn1c(-c2ccccc2)cnc1SCC(=O)CNc1ccc(S(=O)(=O)N2CCCCC2)cc1 | 11.1 µM

Now from value to compound:

Ki | Structure (SMILES)
10.6 µM | Nc1ccc2[nH]c(CCCCCCCCc3nc4cc(N)ccc4[nH]3)nc2c1
9.3 µM | N#Cc1c(NC(=O)CSc2nc(-c3ccc(Cl)cc3)c[nH]2)sc2c1CCCC2
11.8 µM | Cc1sc2ncn3c(SCC(=O)Nc4sc5c(c4C#N)CCCC5)nnc3c2c1C
22.3 µM | O=C(CNc1ccc(S(=O)(=O)N2CCCCC2)cc1)CSc1ncc(-c2ccc(Cl)cc2)n1-c1ccccc1
